Experimental data taken from PubChem BioAssay (NCI).
“And” between values parts separate entries of the source, which are not always exact repeats. Equal entries are not always repeated.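 Results reflect a 48-hour exposure of cells in 96-well plates to compound at five concentrations. GI50 is the concentration that inhibits growth by half. Definition used: TGI = concentration required for complete inhibition of growth.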

Assays:
Test in all cases: growth of human tumour cells (NCI), 48 h
HOP-92 NSCLC = system: HOP-92 NSCLC
HCT-15 colon = system: HCT-15 colon
A498 renal = system: A498 renal
EKVX NSCLC = system: EKVX NSCLC
UACC-62 melanoma = system: UACC-62 melanoma
SF-539 CNS = system: SF-539 CNS
MALME-3M melanoma = system: MALME-3M melanoma
NCI-H226 lung = system: NCI-H226 lung
SK-MEL-5 melanoma = system: SK-MEL-5 melanoma
SN12C renal = system: SN12C renal

| SMILES | GI50 (HOP-92 NSCLC) | TGI (HOP-92 NSCLC) | GI50 (HCT-15 colon) | TGI (HCT-15 colon) | GI50 (A498 renal) | TGI (A498 renal) | GI50 (EKVX NSCLC) | TGI (EKVX NSCLC) | GI50 (UACC-62 melanoma) | TGI (UACC-62 melanoma) | GI50 (SF-539 CNS) | TGI (SF-539 CNS) | GI50 (MALME-3M melanoma) | TGI (MALME-3M melanoma) | GI50 (NCI-H226 lung) | TGI (NCI-H226 lung) | GI50 (SK-MEL-5 melanoma) | TGI (SK-MEL-5 melanoma) | GI50 (SN12C renal) | TGI (SN12C renal) |
| --- | --- | --- | --- | --- | --- | --- | --- | --- | --- | --- | --- | --- | --- | --- | --- | --- | --- | --- | --- | --- |
| COc1ccc(-n2ccnc2-c2cc(OC)c(OC)c(OC)c2)cc1 | 20000 nM | > 100000 nM | 1530 nM | > 100000 nM | 798 nM | 5140 nM | 34000 nM | > 100000 nM | 2610 nM | 27300 nM | 3270 nM | 29100 nM | 747 nM | > 100000 nM | 24000 nM | > 100000 nM | 1910 nM | 11100 nM | 6240 nM | > 100000 nM |
| O=C1c2ccccc2-c2c1c1ccccc1c(=O)n2CCCNCCCCNCCCN1C(=O)c2ccccc2C2C(=O)c3ccccc3C21 (stereo unspecified) | 8.29 nM | 42.8 nM | 229 nM | 853 nM | 628 nM | 2210 nM | 358 nM | 1050 nM | 666 nM | 3250 nM | 91.9 nM | 759 nM | 5270 nM | 35000 nM | 575 nM | 2190 nM | 939 nM | 3930 nM | < 5 nM | 818 nM |
| CC#CC1C2CCCC1(CSc1ccccc1)NC(=O)O2 (stereo unspecified) |  | > 100000 nM |  | > 100000 nM |  | > 100000 nM |  | > 100000 nM |  | > 100000 nM |  | > 100000 nM |  | > 100000 nM |  | > 100000 nM |  | > 100000 nM |  | > 100000 nM |
| Cc1c(O)c2c(c(O)c1Br)C(=O)C=CC2=O | 270 nM | 1480 nM and 887 nM | 451 nM | 1140 nM and 1940 nM |  | 3180 nM and 3870 nM |  | 5210 nM | 1440 nM | 2100 nM and 3210 nM | 1680 nM | 1660 nM and 3100 nM | 552 nM | 776 nM and 1810 nM | 5440 nM | 5770 nM and 18700 nM |  | 974 nM and 1780 nM |  | 2730 nM |
| NC(N)=N/N=C/c1ccc(-c2ccc(-c3cc(Cl)cc(Cl)c3)s2)cc1 | 1410 nM | 3130 nM | 1250 nM | 2760 nM | 1250 nM | 2550 nM | 1840 nM | 4030 nM | 1850 nM | 3720 nM | 1650 nM | 3100 nM | 1720 nM | 3420 nM | 2330 nM | 5990 nM | 2790 nM | 7850 nM | 1760 nM | 3480 nM |
